Tests used:
velvetleaf [1] = assay: Test Example 5: herbicidal effect by foliage application, plastic box (Table 20, symbol M); assay type: in vivo, velvetleaf (Abutilon theophrasti); details: foliage application, 320 g/ha, three weeks after application
Outline: (§1)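 Foliar spray test: emulsion formulation diluted in water to a set application rate, sprayed onto 14-day-old plants raised in diluvial soil at 25° C to 30° C under glass. Both herbicidal effect and crop effect rated visually three weeks later.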

redroot pigweed [2] = assay: Test Example 5: herbicidal effect by foliage application, plastic box (Table 20, symbol N); assay type: in vivo, redroot pigweed (Amaranthus retroflexus); details: foliage application, 320 g/ha, three weeks after application
Outline: as §1

southern crabgrass [3] = assay: Test Example 4: herbicidal effect by soil treatment (Table 19, symbol F); assay type: in vivo, southern crabgrass (Digitaria ciliaris); details: amount of applied herbicide 320 g/ha
Outline: (§2)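 Step 1: sow seeds in sterilized diluvial soil, cover ~1.5 cm. Step 2: spray diluted emulsion onto soil surface at predetermined rate. Step 3: greenhouse, 25–30° C, three weeks. Step 4: grade effect on each plant by earlier criteria.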

windgrass [4] = assay: Test Example 5: herbicidal effect by foliage application, plastic box (Table 20, symbol L); assay type: in vivo, windgrass (Apera spica-venti); details: foliage application, 320 g/ha, three weeks after application
Outline: as §1

Italian ryegrass [5] = assay: Test Example 5: herbicidal effect by foliage application, plastic box (Table 20, symbol K); assay type: in vivo, Italian ryegrass (Lolium multiflorum); details: foliage application, 320 g/ha, three weeks after application
Outline: as §1

blackgrass [6] = assay: Test Example 4: herbicidal effect by soil treatment (Table 19, symbol J); assay type: in vivo, blackgrass (Alopecurus myosuroides); details: amount of applied herbicide 320 g/ha
Outline: as §2

chickweed [7] = assay: Test Example 5: herbicidal effect by foliage application, plastic box (Table 20, symbol P); assay type: in vivo, common chickweed (Stellaria media); details: foliage application, 320 g/ha, three weeks after application
Outline: as §1

blackgrass [8] = assay: Test Example 5: herbicidal effect by foliage application, plastic box (Table 20, symbol J); assay type: in vivo, blackgrass (Alopecurus myosuroides); details: foliage application, 320 g/ha, three weeks after application
Outline: as §1

chickweed [9] = assay: Test Example 4: herbicidal effect by soil treatment (Table 19, symbol P); assay type: in vivo, common chickweed (Stellaria media); details: amount of applied herbicide 320 g/ha
Outline: as §2

velvetleaf [10] = assay: Test Example 4: herbicidal effect by soil treatment (Table 19, symbol M); assay type: in vivo, velvetleaf (Abutilon theophrasti); details: amount of applied herbicide 320 g/ha
Outline: as §2

Italian ryegrass [11] = assay: Test Example 4: herbicidal effect by soil treatment (Table 19, symbol K); assay type: in vivo, Italian ryegrass (Lolium multiflorum); details: amount of applied herbicide 320 g/ha
Outline: as §2

green foxtail [12] = assay: Test Example 4: herbicidal effect by soil treatment (Table 19, symbol G); assay type: in vivo, green foxtail (Setaria viridis); details: amount of applied herbicide 320 g/ha
Outline: as §2

barnyard grass [13] = assay: Test Example 4: herbicidal effect by soil treatment (Table 19, symbol H); assay type: in vivo, barnyard grass (Echinochloa crus-galli); details: amount of applied herbicide 320 g/ha
Outline: as §2

lambsquarters [14] = assay: Test Example 4: herbicidal effect by soil treatment (Table 19, symbol O); assay type: in vivo, lambsquarters (Chenopodium album); details: amount of applied herbicide 320 g/ha
Outline: as §2

lambsquarters [15] = assay: Test Example 5: herbicidal effect by foliage application, plastic box (Table 20, symbol O); assay type: in vivo, lambsquarters (Chenopodium album); details: foliage application, 320 g/ha, three weeks after application
Outline: as §1

wild oat [16] = assay: Test Example 5: herbicidal effect by foliage application, plastic box (Table 20, symbol I); assay type: in vivo, wild oat (Avena fatua); details: foliage application, 320 g/ha, three weeks after application
Outline: as §1

false cleavers = assay: Test Example 4: herbicidal effect by soil treatment (Table 19, symbol Q); assay type: in vivo, false cleavers (Galium spurium); details: amount of applied herbicide 320 g/ha
Outline: as §2

windgrass [17] = assay: Test Example 4: herbicidal effect by soil treatment (Table 19, symbol L); assay type: in vivo, windgrass (Apera spica-venti); details: amount of applied herbicide 320 g/ha
Outline: as §2

southern crabgrass [18] = assay: Test Example 5: herbicidal effect by foliage application, plastic box (Table 20, symbol F); assay type: in vivo, southern crabgrass (Digitaria ciliaris); details: foliage application, 320 g/ha, three weeks after application
Outline: as §1

redroot pigweed [19] = assay: Test Example 4: herbicidal effect by soil treatment (Table 19, symbol N); assay type: in vivo, redroot pigweed (Amaranthus retroflexus); details: amount of applied herbicide 320 g/ha
Outline: as §2

persian speedwell [20] = assay: Test Example 4: herbicidal effect by soil treatment (Table 19, symbol R); assay type: in vivo, Persian speedwell (Veronica persica); details: amount of applied herbicide 320 g/ha
Outline: as §2

persian speedwell [21] = assay: Test Example 5: herbicidal effect by foliage application, plastic box (Table 20, symbol R); assay type: in vivo, Persian speedwell (Veronica persica); details: foliage application, 320 g/ha, three weeks after application
Outline: as §1

barnyard grass [22] = assay: Test Example 5: herbicidal effect by foliage application, plastic box (Table 20, symbol H); assay type: in vivo, barnyard grass (Echinochloa crus-galli); details: foliage application, 320 g/ha, three weeks after application
Outline: as §1

wild oat [23] = assay: Test Example 4: herbicidal effect by soil treatment (Table 19, symbol I); assay type: in vivo, wild oat (Avena fatua); details: amount of applied herbicide 320 g/ha
Outline: as §2

green foxtail [24] = assay: Test Example 5: herbicidal effect by foliage application, plastic box (Table 20, symbol G); assay type: in vivo, green foxtail (Setaria viridis); details: foliage application, 320 g/ha, three weeks after application
Outline: as §1

barnyard grass [25] = assay: Test Example 3: herbicidal effect by foliage application, Wagner pot (Table 18, symbol H); assay type: in vivo, barnyard grass (Echinochloa crus-galli); details: amount of applied herbicide 320 g/ha
Outline: (§3)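 Plants were sown in alluvial soil held under 0.1–0.5 cm standing water and grown 14 days in a greenhouse at 25–30 °C. An emulsifiable formulation, water-diluted to the set dose, was then sprayed onto the foliage, and effects were scored three weeks later using previously defined criteria.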

rice flat sedge = assay: Test Example 3: herbicidal effect by foliage application, Wagner pot (Table 18, symbol E); assay type: in vivo, rice flat sedge (Cyperus iria); details: amount of applied herbicide 320 g/ha
Outline: as §3

Chinese sprangletop = assay: Test Example 3: herbicidal effect by foliage application, Wagner pot (Table 18, symbol D); assay type: in vivo, chinese sprangletop (Leptochloa chinensis); details: amount of applied herbicide 320 g/ha
Outline: as §3

Cc1nn(C)c(=O)c(-c2c(-c3ccc(SCC#N)cc3)sc3ccc(F)cc23)c1O [2-423]
M: velvetleaf, herbicidal effect grade (velvetleaf [1]): 5 (Herbicidal rate of 90% or more (almost completely withered)) | N: redroot pigweed, herbicidal effect grade (redroot pigweed [2]): 5 (Herbicidal rate of 90% or more (almost completely withered)) | herbicidal effect, F: southern crabgrass (southern crabgrass [3]): 0 (Herbicidal rate of 5% or less (almost no effect)) | L: windgrass, herbicidal effect grade (windgrass [4]): 5 (Herbicidal rate of 90% or more (almost completely withered)) | K: Italian ryegrass, herbicidal effect grade (Italian ryegrass [5]): 5 (Herbicidal rate of 90% or more (almost completely withered)) | herbicidal effect, J: blackgrass (blackgrass [6]): 0 (Herbicidal rate of 5% or less (almost no effect)) | P: chickweed, herbicidal effect grade (chickweed [7]): 5 (Herbicidal rate of 90% or more (almost completely withered)) | J: blackgrass, herbicidal effect grade (blackgrass [8]): 4 (Herbicidal rate of 70% or more and less than 90%) | herbicidal effect, P: chickweed (chickweed [9]): 5 (Herbicidal rate of 90% or more (almost completely withered)) | herbicidal effect, M: velvetleaf (velvetleaf [10]): 1 (Herbicidal rate of 5% or more and less than 20%) | herbicidal effect, K: Italian ryegrass (Italian ryegrass [11]): 3 (Herbicidal rate of 40% or more and less than 70%) | herbicidal effect, G: green foxtail (green foxtail [12]): 4 (Herbicidal rate of 70% or more and less than 90%) | herbicidal effect, H: barnyard grass (barnyard grass [13]): 1 (Herbicidal rate of 5% or more and less than 20%) | herbicidal effect, O: lambsquarters (lambsquarters [14]): 4 (Herbicidal rate of 70% or more and less than 90%) | O: lambsquarters, herbicidal effect grade (lambsquarters [15]): 5 (Herbicidal rate of 90% or more (almost completely withered)) | I: wild oat, herbicidal effect grade (wild oat [16]): 5 (Herbicidal rate of 90% or more (almost completely withered)) | herbicidal effect, Q: false cleavers (false cleavers): 0 (Herbicidal rate of 5% or less (almost no effect)) | herbicidal effect, L: windgrass (windgrass [17]): 1 (Herbicidal rate of 5% or more and less than 20%) | F: southern crabgrass, herbicidal effect grade (southern crabgrass [18]): 0 (Herbicidal rate of 5% or less (almost no effect)) | herbicidal effect, N: redroot pigweed (redroot pigweed [19]): 5 (Herbicidal rate of 90% or more (almost completely withered)) | herbicidal effect, R: persian speedwell (persian speedwell [20]): 4 (Herbicidal rate of 70% or more and less than 90%) | R: persian speedwell, herbicidal effect grade (persian speedwell [21]): 5 (Herbicidal rate of 90% or more (almost completely withered)) | H: barnyard grass, herbicidal effect grade (barnyard grass [22]): 5 (Herbicidal rate of 90% or more (almost completely withered)) | herbicidal effect, I: wild oat (wild oat [23]): 0 (Herbicidal rate of 5% or less (almost no effect)) | G: green foxtail, herbicidal effect grade (green foxtail [24]): 5 (Herbicidal rate of 90% or more (almost completely withered))

Cc1nn(C)c(=O)c(-c2c(-c3ccc(SC(C)C)cc3)oc3ccc(F)cc23)c1O [9-041]
Herbicidal effect on H (barnyard grass), foliage application (barnyard grass [25]): 5 (Herbicidal rate of 90% or more (almost completely withered)) | herbicidal effect on velvetleaf (M) (velvetleaf [1]): 3 (Herbicidal rate of 40% or more and less than 70%) | F: southern crabgrass, herbicidal effect grade (southern crabgrass [3]): 3 (Herbicidal rate of 40% or more and less than 70%) | Herbicidal effect on E (rice flat sedge), foliage application (rice flat sedge): 5 (Herbicidal rate of 90% or more (almost completely withered)) | herbicidal effect on windgrass (L) (windgrass [4]): 4 (Herbicidal rate of 70% or more and less than 90%) | herbicidal effect on Italian ryegrass (K) (Italian ryegrass [5]): 5 (Herbicidal rate of 90% or more (almost completely withered)) | J: blackgrass, herbicidal effect grade (blackgrass [6]): 0 (Herbicidal rate of 5% or less (almost no effect)) | herbicidal effect on blackgrass (J) (blackgrass [8]): 3 (Herbicidal rate of 40% or more and less than 70%) | P: chickweed, herbicidal effect grade (chickweed [9]): 1 (Herbicidal rate of 5% or more and less than 20%) | M: velvetleaf, herbicidal effect grade (velvetleaf [10]): 1 (Herbicidal rate of 5% or more and less than 20%) | K: Italian ryegrass, herbicidal effect grade (Italian ryegrass [11]): 5 (Herbicidal rate of 90% or more (almost completely withered)) | G: green foxtail, herbicidal effect grade (green foxtail [12]): 4 (Herbicidal rate of 70% or more and less than 90%) | H: barnyard grass, herbicidal effect grade (barnyard grass [13]): 1 (Herbicidal rate of 5% or more and less than 20%) | O: lambsquarters, herbicidal effect grade (lambsquarters [14]): 4 (Herbicidal rate of 70% or more and less than 90%) | herbicidal effect on lambsquarters (O) (lambsquarters [15]): 4 (Herbicidal rate of 70% or more and less than 90%) | herbicidal effect on wild oat (I) (wild oat [16]): 3 (Herbicidal rate of 40% or more and less than 70%) | Herbicidal effect on D (Chinese sprangletop), foliage application (Chinese sprangletop): 2 (Herbicidal rate of 20% or more and less than 40%) | Q: false cleavers, herbicidal effect grade (false cleavers): 0 (Herbicidal rate of 5% or less (almost no effect)) | L: windgrass, herbicidal effect grade (windgrass [17]): 0 (Herbicidal rate of 5% or less (almost no effect)) | herbicidal effect on southern crabgrass (F) (southern crabgrass [18]): 0 (Herbicidal rate of 5% or less (almost no effect)) | N: redroot pigweed, herbicidal effect grade (redroot pigweed [19]): 5 (Herbicidal rate of 90% or more (almost completely withered)) | R: persian speedwell, herbicidal effect grade (persian speedwell [20]): 4 (Herbicidal rate of 70% or more and less than 90%) | herbicidal effect on persian speedwell (R) (persian speedwell [21]): 5 (Herbicidal rate of 90% or more (almost completely withered)) | herbicidal effect on barnyard grass (H) (barnyard grass [22]): 3 (Herbicidal rate of 40% or more and less than 70%) | I: wild oat, herbicidal effect grade (wild oat [23]): 0 (Herbicidal rate of 5% or less (almost no effect)) | herbicidal effect on green foxtail (G) (green foxtail [24]): 4 (Herbicidal rate of 70% or more and less than 90%)

Source: patent US20230085307A1, “PYRIDAZINONE COMPOUND AND HERBICIDE” (NISSAN CHEMICAL CORPORATION, priority 2019, published 2023)
